Source: ChEMBL document CHEMBL3638545 (2015)

Target: Sodium channel protein type 5 subunit alpha (Homo sapiens, UniProt Q14524)
Assay: Electrophysiological Assay: Patch voltage clamp electrophysiology allows for the direct measurement and quantification of block of voltage-gated sodium channels (NaV's), and allows the determination of the time- and voltage-dependence of block which has been interpreted as differential binding to the resting, open, and inactivated states of the sodium channel (Hille, B., Journal of General …
Type: cell-based, HEK293

Sodium channel protein type 5 subunit alpha, sequence (Q14524 whole entry): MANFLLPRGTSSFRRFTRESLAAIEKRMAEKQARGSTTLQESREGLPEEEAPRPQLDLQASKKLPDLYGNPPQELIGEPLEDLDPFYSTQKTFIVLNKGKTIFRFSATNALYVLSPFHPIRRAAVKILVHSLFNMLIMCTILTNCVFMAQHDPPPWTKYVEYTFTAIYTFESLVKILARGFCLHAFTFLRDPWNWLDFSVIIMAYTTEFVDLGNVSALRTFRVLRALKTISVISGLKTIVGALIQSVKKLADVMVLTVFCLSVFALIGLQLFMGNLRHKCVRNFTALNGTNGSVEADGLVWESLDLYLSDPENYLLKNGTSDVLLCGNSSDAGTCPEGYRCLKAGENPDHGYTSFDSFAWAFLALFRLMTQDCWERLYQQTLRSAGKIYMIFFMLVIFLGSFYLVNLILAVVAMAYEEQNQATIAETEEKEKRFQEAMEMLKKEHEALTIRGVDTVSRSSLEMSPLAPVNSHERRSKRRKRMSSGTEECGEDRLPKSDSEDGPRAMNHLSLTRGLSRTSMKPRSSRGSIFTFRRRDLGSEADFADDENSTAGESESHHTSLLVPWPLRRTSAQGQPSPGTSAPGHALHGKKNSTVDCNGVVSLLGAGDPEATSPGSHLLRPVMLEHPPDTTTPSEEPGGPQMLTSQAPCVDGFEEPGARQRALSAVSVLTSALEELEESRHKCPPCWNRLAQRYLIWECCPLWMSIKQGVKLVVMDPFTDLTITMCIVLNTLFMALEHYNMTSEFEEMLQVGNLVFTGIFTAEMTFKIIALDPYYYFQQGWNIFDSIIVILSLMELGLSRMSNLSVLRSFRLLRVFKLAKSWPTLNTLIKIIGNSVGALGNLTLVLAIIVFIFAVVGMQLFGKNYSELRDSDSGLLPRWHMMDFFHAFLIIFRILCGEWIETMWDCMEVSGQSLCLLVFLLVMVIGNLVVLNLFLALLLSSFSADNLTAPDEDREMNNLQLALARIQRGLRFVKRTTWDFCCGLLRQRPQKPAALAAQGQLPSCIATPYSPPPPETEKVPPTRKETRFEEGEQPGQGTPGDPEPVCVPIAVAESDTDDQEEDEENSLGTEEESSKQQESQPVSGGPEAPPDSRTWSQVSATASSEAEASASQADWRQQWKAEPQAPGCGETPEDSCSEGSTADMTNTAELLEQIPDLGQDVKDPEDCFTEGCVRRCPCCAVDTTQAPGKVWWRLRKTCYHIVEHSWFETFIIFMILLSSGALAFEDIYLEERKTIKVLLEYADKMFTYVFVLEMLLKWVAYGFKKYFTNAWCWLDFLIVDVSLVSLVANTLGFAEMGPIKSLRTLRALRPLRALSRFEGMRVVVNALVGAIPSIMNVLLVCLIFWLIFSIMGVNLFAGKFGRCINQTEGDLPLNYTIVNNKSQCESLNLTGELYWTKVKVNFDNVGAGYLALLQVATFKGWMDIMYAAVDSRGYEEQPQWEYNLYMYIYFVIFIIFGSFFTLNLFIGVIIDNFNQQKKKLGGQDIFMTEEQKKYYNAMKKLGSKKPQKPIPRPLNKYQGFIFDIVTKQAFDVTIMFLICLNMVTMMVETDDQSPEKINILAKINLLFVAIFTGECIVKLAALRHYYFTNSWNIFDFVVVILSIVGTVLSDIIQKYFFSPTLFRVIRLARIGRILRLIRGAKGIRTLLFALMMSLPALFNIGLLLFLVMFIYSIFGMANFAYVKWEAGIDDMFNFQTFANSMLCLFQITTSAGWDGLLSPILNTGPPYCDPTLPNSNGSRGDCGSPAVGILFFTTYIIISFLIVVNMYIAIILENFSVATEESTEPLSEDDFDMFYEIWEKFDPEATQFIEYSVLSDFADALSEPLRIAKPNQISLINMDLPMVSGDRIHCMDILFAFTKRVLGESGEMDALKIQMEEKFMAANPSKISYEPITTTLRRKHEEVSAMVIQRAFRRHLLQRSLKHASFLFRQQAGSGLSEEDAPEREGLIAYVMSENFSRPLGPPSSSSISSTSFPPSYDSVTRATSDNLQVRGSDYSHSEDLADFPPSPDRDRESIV

Row | Structure (SMILES) | IC50 [nM]
1 | CN(C)S(=O)(=O)NC(=O)c1cc(Cl)c(OCC23CC4CC(CC(C4)C2)C3)cc1F | 772
2 | COCCS(=O)(=O)NC(=O)c1cc(C2CC2)c(OCC23CC4CC(CC(C4)C2)C3)cc1F | 101
3 | CC1(C)CCc2cc(OCc3cc(F)c(C(=O)NS(=O)(=O)N4CCC4)cc3Cl)ccc2O1 | 653
4 | CS(=O)(=O)NC(=O)c1cc(C2CC2)c(OCC23CC4CC(C2)C(F)(F)C(C4)C3)cc1F | 714
5 | O=C(NS(=O)(=O)N1CCOCC1)c1cc(C2CC2)c(OCC23CC4CC(CC(C4)C2)C3)cc1F | 14
6 | O=C(NS(=O)(=O)N1CCC1)c1cc(C2CC2)c(OCC23CC4(F)CC(F)(CC(F)(C4)C2)C3)cc1F | 950
7 | O=C(NS(=O)(=O)N1CCC1)c1cc(C2CC2)c(OCC2(C(F)(F)F)CCCCC2)cc1F | 350
